Experimental data taken from US7838508B2, “4′-thio-L-xyloy furanosyl nucleosides, precursors thereof, preparation and use thereof” (priority 2000, dated 2010).
pIC50: −log10 of the molar value. Read-outs that look alike come from different tables or passages of the source.

Assays:
DLD-1 (colon) = test: Cell culture cytotoxicity, DLD-1 (colon); type: cell-based, human
Description: (§1) The cell culture cytotoxicity of compounds of the present invention was determined against several different human cancel cell lines (see Table 1 below) and for antiviral activity (see Table 2 below).

CCRF-CEM (leukemia) = test: Cell culture cytotoxicity, CCRF-CEM (leukemia); type: cell-based, human; details: read-out: Cytotoxicity IC50, CCRF-CEM (leukemia)
Description: as §1

SK-MEL-28 (melanoma) = test: Cell culture cytotoxicity, SK-MEL-28 (melanoma); type: cell-based, human
Description: as §1

SNB-7 (CNS) = test: Cell culture cytotoxicity, SNB-7 (CNS); type: cell-based, human
Description: as §1

NCI-H23 (lung) = test: Cell culture cytotoxicity, NCI-H23 (lung); type: cell-based, human
Description: as §1

CAKI-1 (renal) = test: Cell culture cytotoxicity, CAKI-1 (renal); type: cell-based, human
Description: as §1

CMV = test: Antiviral (CMV) activity; type: cell-based; details: for pIC50: Human betaherpesvirus 5, Antiviral (CMV) data, read-out: IC50: 50% Inhibitory Concentration of CMV; for TI: Therapeutic Index (TC50/IC50): TC50/IC50, CMV
Description: as §1

[1] = Toxicity (cell viability) in antiviral (CMV) test; type: cell-based; details: Antiviral (CMV) data; read-out: TC50: Toxic Concentration at 50% cell viability
Description: as §1

[2] = DLD-1 human colon cancer cell line, read-out: Cytotoxicity IC50, DLD-1 (colon)
[3] = CCRF-CEM human leukemia cell line
[4] = SK-MEL-28 human melanoma cell line, read-out: Cytotoxicity IC50, SK-MEL-28 (melanoma)
[5] = SNB-7 human CNS cancer cell line, read-out: Cytotoxicity IC50, SNB-7 (CNS)
[6] = NCI-H23 human lung cancer cell line, read-out: Cytotoxicity IC50, NCI-H23 (lung)
[7] = CAKI-1 human renal cancer cell line, read-out: Cytotoxicity IC50, CAKI-1 (renal)

Compound	pIC50 (DLD-1 (colon); [2])	pIC50 (CCRF-CEM (leukemia); [3])	pIC50 (SK-MEL-28 (melanoma); [4])	pIC50 (SNB-7 (CNS); [5])	pIC50 (NCI-H23 (lung); [6])	pIC50 (CAKI-1 (renal); [7])	pIC50 (CMV)	TI: Therapeutic Index (TC50/IC50) (CMV)	CC50 [1]	pIC50 (DLD-1 (colon); Homo sapiens, DLD-1, read-out: Cytotoxicity IC50, DLD-1 (colon))	pIC50 (CCRF-CEM (leukemia); Homo sapiens, CCRF-CEM)	pIC50 (SK-MEL-28 (melanoma); Homo sapiens, SK-MEL-28, read-out: Cytotoxicity IC50, SK-MEL-28 (melanoma))	pIC50 (SNB-7 (CNS); Homo sapiens, SNB-7, read-out: Cytotoxicity IC50, SNB-7 (CNS))	pIC50 (NCI-H23 (lung); Homo sapiens, NCI-H23, read-out: Cytotoxicity IC50, NCI-H23 (lung))	pIC50 (CAKI-1 (renal); Homo sapiens, CAKI-1, read-out: Cytotoxicity IC50, CAKI-1 (renal))
1-(4′-thio-α,β-L-Xylofuranosyl)thymine [Compound 17αβ]	< 4.00	< 4.00	< 4.00	< 4.00	< 4.00	< 4.00	–	–	–	–	–	–	–	–	–
Nc1nc(Cl)nc2c1ncn2[C@@H]1S[C@@H](CO)[C@@H](O)[C@@H]1O [Compound 9α, 2-Chloro-9-(4-thio-α-L-xylofuranosyl)adenine]	< 4.00	< 4.00	< 4.00	< 4.00	< 4.00	< 4.00	–	–	–	–	–	–	–	–	–
Nc1nc(Cl)nc2c1ncn2[C@H]1S[C@@H](CO)[C@@H](O)[C@@H]1O [Compound 9β, 2-Chloro-9-(4-thio-β-L-xylofuranosyl)adenine]	< 4.00	< 4.00	< 4.00	< 4.00	< 4.00	< 4.00	–	–	–	–	–	–	–	–	–
Nc1nc(N)c2ncn([C@@H]3S[C@@H](CO)[C@@H](O)[C@@H]3O)c2n1 [Compound 12α, 9-(4-Thio-α-L-Xylofuranosyl)-9H-purine-2,6-diamine]	< 4.00	< 4.00	< 4.00	< 4.00	< 4.00	< 4.00	7.29	>196.1	> 10 µM	–	–	–	–	–	–
Nc1nc(N)c2ncn([C@H]3S[C@@H](CO)[C@@H](O)[C@@H]3O)c2n1 [Compound 12β, 9-(4-Thio-β-L-Xylofuranosyl)-9H-purine-2,6-diamine]	< 4.00	< 4.00	< 4.00	< 4.00	< 4.00	< 4.00	–	–	–	–	–	–	–	–	–
Nc1nc2c(ncn2[C@H]2S[C@@H](CO)[C@@H](O)[C@@H]2O)c(=O)[nH]1 [Compound 13, 9-(4-Thio-β-L-xylofuranosyl)guanine]	< 4.00	< 4.00	< 4.00	< 4.00	< 4.00	< 4.00	–	–	–	–	–	–	–	–	–
Nc1ccn([C@@H]2S[C@@H](CO)[C@@H](O)[C@@H]2O)c(=O)n1 [Compound 15α, 1-(4-thio-α-L-Xylofuranosyl)cytosine]	< 4.00	5.10	< 4.00	< 4.00	< 4.00	< 4.00	7.59	>384.6	> 10 µM	–	–	–	–	–	–
Nc1ccn([C@H]2S[C@@H](CO)[C@@H](O)[C@@H]2O)c(=O)n1 [Compound 15β, 1-(4-thio-β-L-Xylofuranosyl)cytosine]	< 4.00	4.96	< 4.00	4.05	< 4.00	< 4.00	7.66	>454.5	> 10 µM	–	–	–	–	–	–
O=c1ccn(C2S[C@@H](CO)[C@@H](O)[C@@H]2O)c(=O)[nH]1 (stereo partly drawn) [Compound 19αβ, 1-(4-thioα,β-L-Xylofuranosyl)uracil]	–	–	–	–	–	–	–	–	–	< 4.00	< 4.00	< 4.00	< 4.00	< 4.00	< 4.00
Nc1nc(O)c2ncn(COC(CO)CO)c2n1 [Ganciclovir, reference compound]	–	–	–	–	–	–	5.07	>11.6	> 10 µM	–	–	–	–	–	–
